In the supplement of paper PMC10307832:

Legend:
Assay in all cases: relative viability (nuclei count vs DMSO), 5 days (fraction); higher = more cells survive
VE-821 + OSI-027 = compound: CS(=O)(=O)c1ccc(-c2cnc(N)c(C(=O)Nc3ccccc3)n2)cc1 [VE-821] + COc1cccc2cc(-c3nc([C@H]4CC[C@H](C(=O)O)CC4)n4ncnc(N)c34)[nH]c12 [OSI-027] (partner 0.5 µM)
Procedure, shortened: (§1)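 Lung cancer cell lines were pin-tool dosed in 1536-well plates on the day after seeding, with either a lone drug or a fixed anchor-drug dose plus five library-drug doses (not always all listed) in √10 steps. Nuclei were counted on 4× images after 5 days. Relative viability is the ratio of treated-well to vehicle-well nuclei counts, with each value a median of duplicate plates.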

VE-821 + Vorinostat = compound: CS(=O)(=O)c1ccc(-c2cnc(N)c(C(=O)Nc3ccccc3)n2)cc1 [VE-821] + O=C(CCCCCCC(=O)Nc1ccccc1)NO [Vorinostat] (partner 1 µM)
Procedure, shortened: as §1

Vismodegib + OSI-027 = compound: CS(=O)(=O)c1ccc(C(=O)Nc2ccc(Cl)c(-c3ccccn3)c2)c(Cl)c1 [Vismodegib] + COc1cccc2cc(-c3nc([C@H]4CC[C@H](C(=O)O)CC4)n4ncnc(N)c34)[nH]c12 [OSI-027] (partner 0.5 µM)
Procedure, shortened: as §1

Ruxolitinib + Alpelisib = compound: N#CC[C@H](C1CCCC1)n1cc(-c2ncnc3[nH]ccc23)cn1 [Ruxolitinib] + Cc1nc(NC(=O)N2CCC[C@H]2C(N)=O)sc1-c1ccnc(C(C)(C)C(F)(F)F)c1 [Alpelisib] (partner 2 µM)
Procedure, shortened: as §1

Cell Line | relative viability (VE-821 + OSI-027; first compound 0.08 µM) | relative viability (VE-821 + OSI-027; first compound 0.253 µM) | relative viability (VE-821 + OSI-027; first compound 0.8 µM) | relative viability (VE-821 + OSI-027; first compound 2.53 µM) | relative viability (VE-821 + OSI-027; first compound 8 µM) | relative viability (VE-821 + Vorinostat; first compound 0.08 µM) | relative viability (VE-821 + Vorinostat; first compound 0.253 µM) | relative viability (VE-821 + Vorinostat; first compound 0.8 µM) | relative viability (VE-821 + Vorinostat; first compound 2.53 µM) | relative viability (VE-821 + Vorinostat; first compound 8 µM) | relative viability (Vismodegib + OSI-027; first compound 0.08 µM) | relative viability (Vismodegib + OSI-027; first compound 0.253 µM) | relative viability (Vismodegib + OSI-027; first compound 2.53 µM) | relative viability (Vismodegib + OSI-027; first compound 8 µM) | relative viability (Ruxolitinib + Alpelisib; first compound 0.08 µM) | relative viability (Ruxolitinib + Alpelisib; first compound 0.253 µM) | relative viability (Ruxolitinib + Alpelisib; first compound 0.8 µM) | relative viability (Ruxolitinib + Alpelisib; first compound 2.53 µM) | relative viability (Ruxolitinib + Alpelisib; first compound 8 µM) | relative viability (Vismodegib + OSI-027; first compound 0.8 µM)
NCI-H2126 | 0.757 | 0.651 | 0.645 | 0.59 | 0.49 | 0.722 | 0.78 | 0.749 | 0.727 | 0.497 | 0.793 | 0.759 | 0.69 | 0.604 | 0.773 | 0.767 | 0.782 | 0.807 | 0.789 | –
NCI-H460 | 0.814 | 0.628 | 0.409 | 0.292 | 0.0463 | 1.02 | 0.619 | 0.528 | 0.111 | 0.0517 | 0.644 | 0.603 | 0.622 | 0.559 | 0.567 | 0.389 | 0.567 | 0.398 | 0.306 | 0.684
NCI-H1395 | 0.684 | 0.605 | 0.607 | 0.639 | 0.484 | 0.69 | 0.647 | 0.705 | 0.638 | 0.43 | 0.608 | 0.562 | 0.599 | 0.686 | – | 1.27 | 1.21 | 1.02 | 0.892 | 0.596
NCI-H647 | 0.748 | 0.786 | 0.676 | 0.509 | 0.376 | 0.556 | 0.689 | 0.646 | 0.469 | 0.287 | 0.665 | 0.605 | 0.486 | 0.579 | 1.33 | 1.11 | 1.15 | 0.941 | 0.643 | 0.671
NCI-H23 | 0.486 | 0.531 | 0.483 | 0.624 | 0.331 | 0.759 | 0.476 | 0.309 | 0.285 | 0.139 | 0.745 | 0.742 | 0.464 | 0.438 | 0.611 | 0.726 | 0.801 | 0.72 | 0.535 | 0.599
H3255 | 0.603 | 0.584 | 0.637 | 0.606 | 0.566 | 0.953 | 0.742 | 0.915 | 0.772 | 0.805 | 0.58 | 0.634 | 0.579 | 0.522 | – | 0.599 | 0.749 | 0.521 | 0.608 | 0.701
NCI-H1651 | 0.781 | 0.629 | 0.578 | 0.686 | 0.521 | 0.562 | 0.606 | 0.583 | 0.556 | 0.531 | 0.658 | 0.774 | 0.771 | 0.703 | 0.941 | 0.875 | 1.08 | 1.09 | 0.968 | 0.543
NCI-H1734 | 0.701 | 0.529 | 0.599 | 0.529 | 0.331 | 1.03 | 0.762 | 0.733 | 0.707 | 0.44 | 0.603 | 0.598 | 0.577 | 0.605 | 0.68 | 0.579 | 0.798 | 0.623 | 0.667 | 0.727
CAL-12T | 0.529 | 0.612 | 0.489 | 0.423 | 0.483 | 0.931 | 0.762 | 0.826 | 0.833 | 0.686 | 0.776 | 0.462 | 0.636 | 0.654 | 1.26 | 1.31 | 1.25 | 1.05 | 0.78 | 0.774
NCI-H1993 | 0.532 | 0.553 | 0.506 | 0.468 | 0.495 | 0.759 | 0.657 | 0.966 | 0.762 | 0.548 | 0.572 | 0.479 | 0.562 | 0.594 | 0.705 | 0.71 | 0.678 | 0.722 | 0.675 | 0.579
NCI-H1755 | 0.795 | 0.709 | 0.636 | 0.755 | 0.632 | 0.778 | 0.638 | 0.734 | 0.792 | 0.615 | 0.782 | 0.688 | 0.689 | 0.634 | 0.885 | 0.904 | 0.97 | 0.796 | 0.623 | 0.73
SK-LU-1 | 0.316 | 0.316 | 0.312 | 0.268 | 0.193 | 0.918 | 0.687 | 0.783 | 0.496 | 0.305 | 0.414 | 0.39 | 0.401 | 0.345 | 1.18 | 1.05 | 1.11 | 0.823 | 0.623 | 0.384
NCI-H358 | 0.983 | 0.875 | 0.727 | 0.79 | 0.48 | 0.737 | 0.694 | 0.712 | 0.608 | 0.329 | 0.775 | 0.711 | 0.807 | 0.853 | 0.787 | 0.913 | 0.867 | 0.65 | 0.554 | 0.8
NCI-H1793 | 0.247 | 0.305 | 0.232 | 0.272 | 0.242 | 0.996 | 0.616 | – | 0.837 | 0.615 | – | 0.246 | 0.242 | 0.23 | 0.539 | 0.654 | 0.789 | 0.83 | 0.679 | 0.248
HCC-78 | 0.385 | 0.349 | 0.372 | 0.401 | 0.326 | 0.388 | 0.53 | 0.393 | 0.493 | 0.417 | 0.372 | 0.371 | 0.347 | 0.347 | 0.289 | 0.249 | 0.308 | 0.277 | 0.337 | 0.382
LCLC-97TM1 | 0.564 | 0.506 | 0.669 | 0.786 | 0.668 | 0.84 | 0.65 | 0.879 | 1.01 | 0.327 | 0.673 | 0.522 | 0.507 | 0.523 | 0.215 | 0.204 | 0.275 | 0.235 | 0.327 | 0.525
NCI-H661 | 0.805 | 0.743 | 0.783 | 0.758 | 0.663 | 0.839 | 0.836 | 0.815 | 0.783 | 0.627 | 0.735 | 0.705 | 0.738 | 0.731 | 0.406 | 0.623 | 0.579 | 0.583 | 0.252 | 0.723
NCI-H1944 | 0.441 | 0.354 | 0.383 | 0.463 | 0.328 | 0.581 | 0.498 | 0.498 | 0.492 | 0.243 | 0.413 | 0.391 | 0.388 | 0.442 | 0.777 | 0.689 | 0.863 | 0.782 | 0.753 | 0.422
SW 1573 | 0.549 | 0.853 | 0.649 | 0.823 | 0.453 | 0.745 | 0.708 | 0.83 | 0.954 | 0.532 | 0.742 | 0.595 | 0.521 | 0.574 | 0.926 | 0.712 | 0.984 | 0.558 | 0.687 | 0.682
NCI-H1975 | 0.901 | 0.589 | – | 0.471 | 0.439 | 0.749 | 0.697 | 0.706 | 0.647 | 0.516 | 0.724 | 0.633 | 0.632 | 0.607 | 0.663 | 0.559 | 0.587 | 0.482 | 0.338 | 0.686
EPLC-272H | 0.286 | 0.268 | 0.296 | 0.333 | 0.21 | 0.575 | 0.378 | 0.332 | 0.428 | 0.157 | 0.291 | 0.273 | 0.278 | 0.275 | 0.841 | 0.903 | 1.07 | 1.06 | 1.01 | 0.279
EMC-BAC-2 | 0.398 | 0.319 | 0.372 | 0.388 | 0.346 | 0.495 | 0.423 | 0.431 | 0.416 | 0.338 | 0.423 | 0.378 | 0.394 | 0.395 | 0.725 | 0.72 | 0.742 | 0.637 | 0.568 | 0.419
PC-3 [JPC-3] | 0.89 | 0.724 | 0.887 | 0.829 | 0.749 | 0.815 | 0.734 | 0.858 | 0.883 | 0.664 | 0.823 | 0.756 | 0.728 | 0.673 | 0.763 | 1.05 | 1.1 | 0.991 | 0.932 | 0.718
NCI-H1666 | 0.903 | 0.785 | 0.948 | 0.936 | 0.703 | 1.14 | 1.06 | 1.18 | 1.01 | 0.942 | 0.841 | 0.764 | 0.858 | 0.958 | 0.973 | 0.821 | 1.06 | 0.823 | 1 | 0.786
NCI-H1915 | 0.701 | 0.593 | 0.618 | 0.684 | 0.534 | 0.623 | 0.509 | 0.451 | 0.536 | 0.457 | 0.669 | 0.592 | 0.566 | 0.608 | 1.06 | 1.04 | 1.11 | 1.04 | 0.966 | 0.536
HCC-15 | 0.835 | 0.689 | 0.692 | 0.855 | 0.682 | 0.954 | 0.868 | 0.901 | 0.943 | 0.934 | 0.753 | 0.664 | 0.738 | 0.631 | 0.844 | 0.875 | 0.923 | 0.812 | 0.73 | 0.654
EKVX | 0.696 | 0.675 | 0.676 | 0.745 | 0.605 | 0.961 | 0.665 | 0.707 | 0.81 | 0.452 | 0.677 | 0.67 | 0.715 | 0.731 | 0.769 | 0.862 | 1 | 0.92 | 0.832 | 0.676
